Several values for one entry are separate records, joined by “and”; a condition that tells them apart may be missing. Equal values may be shown once. Inconclusive results and toxic doses are left out.
System: P388 leukemia ip, CD2F1 mice, survival T/C
Experiment: NCI In Vivo Anticancer Drug Screen. Data for tumor model P388 Leukemia (intraperitoneal) in CD2F1 (CDF1) mice
Conditions: endpoint: median survival time, higher = longer survival
Summary of the method: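 Mice carrying the transplanted tumor received test compound or vehicle. Survival was recorded in each group, and the value is the treated-group measurement divided by that of the vehicle-treated control group.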

[1] = dose: 100.0 mg/kg/injection, schedule: Q04DX002 (ip), vehicle: saline with Tween-80
[2] = dose: 200.0 mg/kg/injection, schedule: Q04DX002 (ip), vehicle: saline with Tween-80
[3] = dose: 400.0 mg/kg/injection, schedule: Q04DX002 (ip), vehicle: saline with Tween-80
[4] = dose: 60.0 mg/kg/injection, schedule: Q01DX005 (ip), vehicle: saline with Tween-80
[5] = dose: 120.0 mg/kg/injection, schedule: Q01DX005 (ip), vehicle: saline with Tween-80
[6] = dose: 240.0 mg/kg/injection, schedule: Q01DX005 (ip), vehicle: saline with Tween-80
[7] = dose: 50.0 mg/kg/injection, schedule: Q01DX005 (ip), vehicle: saline with Tween-80
[8] = dose: 100.0 mg/kg/injection, schedule: Q01DX005 (ip), vehicle: saline with Tween-80
[9] = dose: 200.0 mg/kg/injection, schedule: Q01DX005 (ip), vehicle: saline with Tween-80
[10] = dose: 100.0 mg/kg/injection, schedule: Q01DX001 (ip), vehicle: Klucel (hydroxypropylcellulose) (HPC)
[11] = dose: 200.0 mg/kg/injection, schedule: Q01DX001 (ip), vehicle: Klucel (hydroxypropylcellulose) (HPC)
[12] = dose: 400.0 mg/kg/injection, schedule: Q01DX001 (ip), vehicle: Klucel (hydroxypropylcellulose) (HPC)
[13] = dose: 60.0 mg/kg/injection, schedule: Q01DX005 (ip), vehicle: Klucel (hydroxypropylcellulose) (HPC)
[14] = dose: 120.0 mg/kg/injection, schedule: Q01DX005 (ip), vehicle: Klucel (hydroxypropylcellulose) (HPC)
[15] = dose: 240.0 mg/kg/injection, schedule: Q01DX005 (ip), vehicle: Klucel (hydroxypropylcellulose) (HPC)
[16] = dose: 50.0 mg/kg/injection, schedule: Q01DX009 (ip), vehicle: Klucel (hydroxypropylcellulose) (HPC)
[17] = dose: 100.0 mg/kg/injection, schedule: Q01DX009 (ip), vehicle: Klucel (hydroxypropylcellulose) (HPC)
[18] = dose: 25.0 mg/kg/injection, schedule: Q01DX005 (ip), vehicle: Klucel (hydroxypropylcellulose) (HPC)
[19] = dose: 50.0 mg/kg/injection, schedule: Q01DX009 (ip), vehicle: saline with Tween-80
[20] = dose: 100.0 mg/kg/injection, schedule: Q01DX009 (ip), vehicle: saline with Tween-80
[21] = dose: 200.0 mg/kg/injection, schedule: Q01DX009 (ip), vehicle: saline with Tween-80

SMILES: O/N=C\C(=N/O)c1ccc(O)c(O)c1
- T/C [1]: 107 % of control
- T/C [2]: 108 % of control
- T/C [3]: 102 % of control

SMILES: Cc1ccc(O)c(C(c2ccc3c(c2)OCO3)N2CCOCC2)c1 (configuration not stated)
- T/C [4]: 101 % of control
- T/C [5]: 100 % of control
- T/C [6]: 97 % of control

SMILES: [N-]=[N+]=Nc1ccc(NCCN2C(=O)C=CC2=O)c([N+](=O)[O-])c1
- T/C [7]: 103 % of control
- T/C [8]: 101 % of control
- T/C [9]: 101 % of control

SMILES: CCC(C)C(NC(=O)C(Cc1cnc[nH]1)N(C(=O)OCc1ccccc1)C(=O)OCc1ccccc1)C(=O)OCc1ccccc1 (configuration not stated)
- T/C [7]: 100 % of control
- T/C [8]: 93 % of control

SMILES: CN1N=Nc2ccccc2C1(O)c1ccccc1 (configuration not stated)
- T/C [10]: 98 % of control
- T/C [11]: 98 % of control
- T/C [12]: 102 % of control

SMILES: O=C(NS(=O)(=O)Cl)Oc1ccc(Cl)cc1C(=O)Oc1ccc(Cl)cc1
- T/C [13]: 90 % of control
- T/C [14]: 93 % of control
- T/C [15]: 86 % of control

SMILES: COC(=O)/C=C/N=[N+]=[N-]
- T/C [4]: 106 % of control
- T/C [5]: 106 % of control
- T/C [6]: 106 % of control

SMILES: CCCCNC1Cc2ccccc2CC1O (configuration not stated)
- T/C (dose: 0.79 mg/kg/injection, schedule: Q01DX005 (ip), vehicle: saline): 100 % of control and 107 % of control
- T/C (dose: 1.56 mg/kg/injection, schedule: Q01DX005 (ip), vehicle: saline): 100 % of control and 104 % of control
- T/C (dose: 3.12 mg/kg/injection, schedule: Q01DX005 (ip), vehicle: saline): 101 % of control and 105 % of control and 115 % of control
- T/C (dose: 6.25 mg/kg/injection, schedule: Q01DX005 (ip), vehicle: saline): 100 % of control and 108 % of control and 121 % of control
- T/C (dose: 12.5 mg/kg/injection, schedule: Q01DX005 (ip), vehicle: saline): 104 % of control

SMILES: O=C(O)c1c[nH]c2cc(OCCc3ccc(F)cc3)ccc2c1=O
- T/C (dose: 50.0 mg/kg/injection, schedule: Q01DX009 (ip), vehicle: saline): 107 % of control
- T/C (dose: 100.0 mg/kg/injection, schedule: Q01DX009 (ip), vehicle: saline): 101 % of control
- T/C (dose: 200.0 mg/kg/injection, schedule: Q01DX009 (ip), vehicle: saline): 101 % of control

SMILES: CC(C)(C)C(=O)/C=C/c1ccc(Cl)c(Cl)c1
- T/C [16]: 104 % of control
- T/C [17]: 107 % of control
- T/C (dose: 200.0 mg/kg/injection, schedule: Q01DX009 (ip), vehicle: Klucel (hydroxypropylcellulose) (HPC)): 99 % of control

SMILES: O=C(/C=C/c1cn(C(=O)CCCl)c2ccccc12)c1cccc([N+](=O)[O-])c1
- T/C [4]: 99 % of control
- T/C [5]: 96 % of control
- T/C [6]: 89 % of control

SMILES: O=C1C(Cl)=C(Cl)C(=O)c2ccccc21
- T/C (dose: 5.0 mg/kg/injection, schedule: Q01DX009 (ip), vehicle: saline with Tween-80): 109 % of control
- T/C (dose: 5.0 mg/kg/injection, schedule: Q04DX003 (ip), vehicle: saline with Tween-80): 100 % of control
- T/C (dose: 10.0 mg/kg/injection, schedule: Q01DX009 (ip), vehicle: saline with Tween-80): 109 % of control
- T/C (dose: 10.0 mg/kg/injection, schedule: Q04DX003 (ip), vehicle: saline with Tween-80): 100 % of control
- T/C (dose: 20.0 mg/kg/injection, schedule: Q01DX009 (ip), vehicle: saline with Tween-80): 109 % of control
- T/C (dose: 20.0 mg/kg/injection, schedule: Q04DX003 (ip), vehicle: saline with Tween-80): 95 % of control

SMILES: O=NC1C(=O)NC(=S)NC1=O
- T/C (dose: 12.5 mg/kg/injection, schedule: Q04DX002 (ip), vehicle: saline with Tween-80): 100 % of control

SMILES: CN=C(C)NO
- T/C (dose: 50.0 mg/kg/injection, schedule: Q01DX005 (ip), vehicle: saline): 106 % of control
- T/C (dose: 100.0 mg/kg/injection, schedule: Q01DX005 (ip), vehicle: saline): 104 % of control
- T/C (dose: 200.0 mg/kg/injection, schedule: Q01DX005 (ip), vehicle: saline): 99 % of control

SMILES: Cc1cc(C)cc(C(C)(C)C)c1
- T/C (dose: 100.0 mg/kg/injection, schedule: Q04DX003 (ip), vehicle: saline with Tween-80): 100 % of control
- T/C (dose: 200.0 mg/kg/injection, schedule: Q04DX003 (ip), vehicle: saline with Tween-80): 100 % of control

SMILES: CC(=O)OCN(C)C=O
- T/C (dose: 125.0 mg/kg/injection, schedule: Q01DX005 (ip), vehicle: water): 96 % of control
- T/C (dose: 250.0 mg/kg/injection, schedule: Q01DX005 (ip), vehicle: water): 91 % of control
- T/C (dose: 500.0 mg/kg/injection, schedule: Q01DX005 (ip), vehicle: water): 98 % of control

SMILES: NC(N)=NS(=O)(=O)c1ccc(N=Nc2c(O)n(-c3ccccc3)c(=S)n(-c3ccccc3)c2=O)cc1
- T/C [13]: 105 % of control
- T/C [14]: 99 % of control
- T/C [15]: 99 % of control

SMILES: C/C=C1\CN2CCC34c5ccccc5N(C(C)=O)C3C(C=O)C1CC24 (configuration not stated)
- T/C (dose: 7.88 mg/kg/injection, schedule: Q01DX005 (ip), vehicle: saline + Tween-80 + alcohol): 101 % of control
- T/C (dose: 15.75 mg/kg/injection, schedule: Q01DX005 (ip), vehicle: saline + Tween-80 + alcohol): 109 % of control
- T/C (dose: 31.5 mg/kg/injection, schedule: Q01DX005 (ip), vehicle: saline + Tween-80 + alcohol): 103 % of control
- T/C (dose: 63.0 mg/kg/injection, schedule: Q01DX005 (ip), vehicle: saline + Tween-80 + alcohol): 103 % of control

SMILES: CCCCCCC1N=C(N)N=C(N)N1c1ccc(Cl)cc1 (configuration not stated)
- T/C (dose: 6.25 mg/kg/injection, schedule: Q01DX005 (ip), vehicle: Klucel (hydroxypropylcellulose) (HPC)): 100 % of control
- T/C (dose: 12.5 mg/kg/injection, schedule: Q01DX005 (ip), vehicle: Klucel (hydroxypropylcellulose) (HPC)): 110 % of control
- T/C [18]: 106 % of control

SMILES: C[C@H]1CC[C@@H]2[C@@H](C)[C@H]3[C@H](C[C@H]4[C@@H]5CC=C6C[C@@H](O)CC[C@]6(C)[C@H]5C[C@H](O)[C@]34C)N2C1
- T/C [18]: 101 % of control and 105 % of control

SMILES: CCN(CC)CCOc1ccc(C(O)(Cc2ccc(OC)cc2)c2ccccc2)cc1 (configuration not stated)
- T/C [7]: 101 % of control
- T/C [8]: 92 % of control
- T/C [9]: 92 % of control

SMILES: CCC/C(C)=C(/C#N)CC
- T/C (dose: 25.0 mg/kg/injection, schedule: Q01DX009 (ip), vehicle: Klucel (hydroxypropylcellulose) (HPC)): 101 % of control
- T/C [16]: 101 % of control
- T/C [17]: 101 % of control

SMILES: Cc1cccc(C(=O)N2C(=O)Cc3ccccc32)c1
- T/C [10]: 99 % of control
- T/C [11]: 94 % of control

SMILES: COC(=O)CCN1CCCC1CC(O)/C=C/c1ccccc1 (configuration not stated)
- T/C (dose: 100.0 mg/kg/injection, schedule: Q01DX001 (ip), vehicle: saline with Tween-80): 93 % of control
- T/C (dose: 200.0 mg/kg/injection, schedule: Q01DX001 (ip), vehicle: saline with Tween-80): 100 % of control
- T/C (dose: 400.0 mg/kg/injection, schedule: Q01DX001 (ip), vehicle: saline with Tween-80): 106 % of control

SMILES: CC(=O)OC1C=CCC2C(=O)c3cccc(O)c3C(=O)C12 (configuration not stated)
- T/C [13]: 107 % of control
- T/C [14]: 105 % of control
- T/C [15]: 97 % of control

SMILES: C=CC(C)(CCC=C(C)C)ON(CC)CC (configuration not stated)
- T/C [1]: 108 % of control
- T/C [2]: 113 % of control
- T/C [3]: 92 % of control

SMILES: S=C(NNc1nnc(-c2ccccc2)c(-c2ccccc2)n1)Nc1ccccc1
- T/C (dose: 12.5 mg/kg/injection, schedule: Q01DX005 (ip), vehicle: saline with Tween-80): 106 % of control
- T/C (dose: 25.0 mg/kg/injection, schedule: Q01DX005 (ip), vehicle: saline with Tween-80): 97 % of control
- T/C [7]: 90 % of control and 93 % of control

SMILES: CC1(C)CC(=O)C2=C(C1)Nn1c(nnc1C(F)(F)F)S2
- T/C [19]: 102 % of control
- T/C [20]: 110 % of control
- T/C [21]: 105 % of control

SMILES: CN(C)c1ccc(N=Nc2ccc3c4c(cccc24)-c2ccccc2-3)cc1
- T/C [19]: 104 % of control
- T/C [20]: 96 % of control
- T/C [21]: 115 % of control

SMILES: CC(C)(C)c1ccc(OCc2cnc[nH]2)cc1
- T/C (dose: 25.0 mg/kg/injection, schedule: Q01DX001 (ip), vehicle: saline): 102 % of control
- T/C (dose: 50.0 mg/kg/injection, schedule: Q01DX001 (ip), vehicle: saline): 101 % of control
- T/C (dose: 100.0 mg/kg/injection, schedule: Q01DX001 (ip), vehicle: saline): 110 % of control

SMILES: C=C(C)OP(=O)(OCC)OCC
- T/C [10]: 100 % of control
- T/C [11]: 111 % of control
- T/C [12]: 102 % of control
